Counter-ions that a name gives are not always drawn. Bridge positions count the residues as written; N and C are the ends. Square brackets hold non-standard residues; d marks the D form. Peptide text beside a SMILES is read from it. * marks the point of attachment. X1 = CC[C@H](C)CCCCC(=O)*; Dab = NCC[C@H](N)C(=O)O
What was measured:
[1] = system: Pseudomonas aeruginosa ATCC27853; assay: MIC by broth microdilution; format: cell-based; conditions: Mueller-Hinton broth, 5 x 10^5 CFUs/mL, 37 °C, 24 h
Description: (§1) Antimicrobial effects of the colistin and CCM-CL against P. aeruginosa ATCC 27853, A. baumannii BCRC 10591, and P. aeruginosa 048,431 were determined by the minimal inhibitory concentration (MIC). P. aeruginosa ATCC […] and A. baumannii BCRC 10591 are standard strains; they were purchased from the American Type Culture Collection and Biosource Collection and Research Center, Taiwan, respectively. P. aeruginosa 048431 is a carbapenem-resistant blood isolate from a patient with lung adenocarcinoma and ventilator-associated pneumonia. The broth microdilution method determined the MICs for the study drugs. Briefly, serial doubling dilutions of antimicrobial agents were made in a Mueller–Hinton broth. The final bacterial suspension in the mixture was adjusted to 5 × 10^5 CFUs/mL, and the exact colony count was measured by plating 10-fold serially diluted specimens of 100 μL aliquots on drug-free nutrient agar (Difco Laboratories, Franklin, NJ, USA). The mixtures of bacteria and drugs were incubated at 37 °C for 24 h. The MIC is defined as the lowest antibiotic concentration preventing visible growth in broth.

[2] = system: Pseudomonas aeruginosa 048431 (carbapenem-resistant blood isolate); assay: MIC by broth microdilution; format: cell-based; conditions: Mueller-Hinton broth, 5 x 10^5 CFUs/mL, 37 °C, 24 h
Description: as §1

[3] = system: Acinetobacter baumannii 10591; assay: MIC by broth microdilution; format: cell-based; conditions: Mueller-Hinton broth, 5 x 10^5 CFUs/mL, 37 °C, 24 h
Description: as §1

[4] = system: carbapenem-resistant P. aeruginosa (CRPA); assay: Bacterial load in lung of infected mice; format: in vivo, C57BL/6 mice; conditions: mice infected intratracheally, drug iv 1.5 h after infection, sacrificed 48 h later, lung homogenate 10-fold diluted, 48 h incubation
Description: (§2) Male C57BL/6 mice (21 to 23 g) were divided into three groups (namely control, free colistin, and CCM-CL), with 10 mice in each group. All animals were administered 150 mg/kg of cyclophosphamide intraperitoneally, 3 days and 1 day before infection. At day 0 (defined as infection day), mice were infected with 0.04 mL of a drug-resistant strain P. aeruginosa 048431, which was administered intratracheally at a concentration of 5 × 10^5 CFUs/mL. Ninety minutes later, water, free colistin, and CCM-CL were administered intravenously at 8 mg/kg. On day 2, free colistin and CCM-CL at a dose of 8 mg/kg and water were administered again (Figure 5).
This study was conducted and administered along with the survival assay. The pulmonary burden of P. aeruginosa was determined on the third day. Mice were sacrificed with carbon dioxide; then, their lungs were removed aseptically and rinsed with sterile saline. The lungs were treated with a homogenizer and then subjected to a 10-fold series of dilutions; 0.05 mL of each dilution was plated on dextrose agar. The plates were then incubated at 37 °C for 2 days, and the colonies were then enumerated.

[5] = system: male C57BL/6 mice; assay: No observed adverse effect level (NOAEL), up-and-down procedure; format: in vivo; conditions: for No. of Survival/Total Mice: 6 mg/mL, 8-week-old male C57BL/6 mice
Description: In the up-and-down method, animals were dosed one at a time. If an animal survived, the dose for the next animal increased; if it died, the next dose decreased. This test determined the safety of a single dose for intravenous bolus injection and 3 min infusion.

[6] = Pharmacokinetic study, plasma colistin after intravenous dosing; format: in vivo, Sprague-Dawley (SD) rats; conditions: male SD rats, iv 3 mg/kg for 15 min, LC-MS; for t1/2, elimination half-time T1/2(β): 3 rats per group, colistin one-compartment, CCM-CL two-compartment model (PKsolver), 3 mg/kg
Description: Chromatographic separation was performed by the ACQUITY UHPLC system (Waters Corporation, Milford, MA, USA) on a Phenomenex Kinetex EVO C18 column (150 mm × 4.6 mm; I.D. 5 μm) maintained at 25 ± 5 °C. The mobile phase consisted of solution ‘A’ (acetonitrile) and solution ‘B’ (0.05% trifluoroacetic acid in water, v/v). The percentage was initially set at 10% and increased to 60% within 5 min, using a flow rate of 0.5 mL/min. […] The total run time was 9 min, and the injection volume was 20 μL. We set the autosampler at 10 ± 5 °C. The ultra-performance liquid chromatography (UHPLC) was interfaced to an ACQUITY QDa detector (Waters Corporation) with electrospray ionization […] in positive mode used for detection. The optimized tuning parameters were as follows: capillary voltage, 0.3 kV; cone voltage, 8 V; and probe temperature, 600 °C. The mass transitions were m/z 585.5 for colistin A, 578.5 for colistin B, and 602.8 for polymyxin B (an internal standard).
Sample pre-treatment: Five microliters of polymyxin B (Toronto Research Chemicals, CAS number 1405-20-5) dissolved in water (420 μg/mL, an internal standard) was added to 100 μL rat plasma sample. After that, 400 μL of acetonitrile and 10% trichloroacetic acid mixed solution (50/50, v/v) was added. The samples were vortex-mixed for 1 min and then centrifuged at 12,000 rpm for 10 min. Following centrifugation, the supernatant was collected and filtered with 0.45 μm PVDF membrane filter for analysis.
The day before the pharmacokinetic study, the right carotid artery of each rat was cannulated for collection of blood samples. Following surgery, rats were individually housed in metabolic cages and were given 24 h for recovery. […] Blood plasma was collected at min 0, 15, 60, 120, and 180 following drug infusion. All blood samples were collected and transferred into an EDTA-K2 tube, and were then centrifuged at 1500 rcf for 10 min at 4 °C. The experiments were repeated three times. After centrifugation, the plasma was collected and examined by LC-MS. In previous pharmacokinetic studies, colistin is best described by the one-compartment linear model. […] CMS is hydrolyzed to form partially sulfomethylated derivatives as well as colistin sulfate, the active form of the drug. Like CMS, colistin is released from CCM-CL once ferrous ions in the CCM complex are captured by transferrin [34]. Therefore, we estimated the pharmacokinetics for colistin using the one-compartment model and CCM-CL using the two-compartment model. The data were analyzed using PKsolver (Microsoft Excel).

[7] = system: carbapenem-resistant P. aeruginosa 048431 pneumonia; assay: Survival study in the neutropenic murine pneumonia model; format: in vivo; conditions: neutropenic (cyclophosphamide) male C57BL/6 mice, intratracheal P. aeruginosa 048431, 8 mg/kg iv 90 min after infection and again on day 2, n = 10
Description: as §2
Data were analyzed using WinSTATt (Microsoft Excel). Overall survival probabilities […] were estimated using the Kaplan–Meier method. The log-rank test (Cox–Mantel) was used to test significant differences in survival among groups.

## CC[C@H](C)CCCCC(=O)N[C@@H](CCN)C(=O)N[C@H](C(=O)N[C@@H](CCN)C(=O)N[C@H]1CCNC(=O)[C@H]([C@@H](C)O)NC(=O)[C@H](CCN)NC(=O)[C@H](CCN)NC(=O)[C@H](CC(C)C)NC(=O)[C@@H](CC(C)C)NC(=O)[C@H](CCN)NC1=O)[C@@H](C)O [Colistin, Colistin sulfate] (X1-[Dab]T[Dab][Dab][Dab][dL]L[Dab][Dab]T; lactam 4-C)
[1]
  Minimal inhibitory concentration: 0.5
[2]
  Minimal inhibitory concentration: 0.5
[3]
  Minimal inhibitory concentration: 2
[4]
  Colony counts of CRPA isolated from the lungs: 60 CFU
[5]; intravenous bolus injection, single dose 8 mg/kg
  No. of Survival/Total Mice: 5/5
[5]; intravenous bolus injection, single dose 13 mg/kg
  No. of Survival/Total Mice: 0/1
[5]; intravenous bolus injection, single dose 20 mg/kg
  No. of Survival/Total Mice: 1/3
[5]; single 3 min intravenous infusion, male C57BL/6 mice
  Safe dosage (NOAEL), slow infusion: 8 mg/kg
[5]; single intravenous bolus injection, male C57BL/6 mice
  Safe (NOAEL) dose, bolus: 13 mg/kg
[5]; slow infusion (3 min), single dose 13 mg/kg
  No. of Survival/Total Mice: 0/1
[6]; plasma sampled to 180 min
  AUC0–t: 239.31 mg·min/L
[6]; plasma
  AUC0–inf: 239.32 mg·min/L
  Cmax: 9030 ng/mL
  t1/2, elimination half-time T1/2(β): 12.46 min
[6]; plasma, listed as free colistin
  t1/2, elimination half-time T1/2(β): 102.23 min
[7]
  14-day survival rate: 30%

Source: article PMC10215448, “The Antimicrobial Effects of Colistin Encapsulated in Chelating Complex Micelles for the Treatment of Multi-Drug-Resistant Gram-Negative Bacteria: A Pharmacokinetic Study” (Antibiotics, 2023)
